Here are results for three compounds from patent US12371414B2, “Methods of treating neurological disorders” (NEUMORA THERAPEUTICS, INC., priority 2022, dated 2025).

In assay [1] the target is T1, CK-1δ (Homo sapiens, UniProt P48730). As to the kind of experiment: Biochemical kinase assay (HotSpot radioisotope filter binding, Reaction Biology). On the set-up: purchased Reaction Biology. To be noted: read-out: Biochemical Kinase Assay CK-1d IC50. As for the experimental part:
Biochemical inhibition of CK-1δ and kinome selectivity was assessed using a HotSpot radioisotope filter binding assay (Reaction Biology). In the HotSpot assay, compounds were incubated with the kinase, substrate, cofactors, and radioisotope-labeled ATP. The reaction mixtures are then spotted onto filter papers, which bind the radioisotope-labeled catalytic product that can be quantified.
(§1) The IC50 ranges are as follows: for NanoBRET IC50 (nM), A denotes <400 nM; B denotes 400 nM≤KD<800 nM; C denotes KD≥800 nM. For the biochemical kinase assay IC50 (nM), A denotes <50 nM; B denotes 50 nM≤IC50<100 nM; C denotes ≥100 nM.

For assay [2], the target named is T1, CK-1δ. Put plainly: Cellular target engagement (NanoBRET) competition assay. The format is cell-based. On the set-up: expressed in transfected cells; host or cells: 293T-HEK cells. Particulars: NanoLuc-tagged kinase in 293T-HEK cells, tracer displacement; read-out: NanoBRET CK-1d IC50. As for the experimental part: The cell based CK-1δ target engagement assay is a NanoBRET competition assay that directly quantifies compound binding to full length kinases in live cells (Robers M et al. Nat. Comm. No 6 (2015)). The assay utilizes a cell permeable fluorescent tracer that reversibly binds to a NanoLuc-tagged kinase expressed in 293T-HEK cells. Intracellular target engagement of an unmodified test compound was measured by competitive displacement of the tracer resulting in a loss of bioluminescence energy transfer (BRET) that was quantified on a microplate-based luminometer.
as §1

Bounds are passed on as bounds.

T1 sequence (P48730 whole entry): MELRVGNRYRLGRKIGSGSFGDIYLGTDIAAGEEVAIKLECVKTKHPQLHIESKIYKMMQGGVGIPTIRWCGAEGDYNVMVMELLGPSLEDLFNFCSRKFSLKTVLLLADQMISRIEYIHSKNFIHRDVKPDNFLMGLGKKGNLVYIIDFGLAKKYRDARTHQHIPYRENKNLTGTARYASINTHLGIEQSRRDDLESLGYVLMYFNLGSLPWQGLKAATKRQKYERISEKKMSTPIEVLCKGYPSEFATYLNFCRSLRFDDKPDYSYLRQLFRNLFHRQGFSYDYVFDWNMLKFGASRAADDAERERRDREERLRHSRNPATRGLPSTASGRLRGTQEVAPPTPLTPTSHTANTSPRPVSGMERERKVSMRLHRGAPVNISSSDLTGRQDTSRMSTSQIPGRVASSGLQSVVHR

`CNc1nc(-c2ccncc2)c(-c2ccc(Cl)cc2)c(=O)n1C` [Compound 1, 5-(4-chlorophenyl)-3-methyl-2-(methylamino)-6-(pyridin-4-yl)pyrimidin-4(3H)-one]: the 50% inhibitory concentration (IC50) – broadly, the concentration that inhibits the measured activity by half – in assay [1] was < 50 nM; in assay [2] it was 400 to 800 nM.

Take `CC(C)Cc1nc(-c2ccncc2)c(-c2ccc(Cl)cc2)c(=O)[nH]1` [Compound 2, 5-(4-chlorophenyl)-2-isobutyl-6-(pyridin-4-yl)pyrimidin-4(3H)-one]: the IC50 was < 50 nM in assay [1] and < 400 nM in assay [2].

For `Cc1cc(-c2nc(CC(C)C)[nH]c(=O)c2-c2ccc(Cl)cc2F)ccn1` [Compound 3, 5-(4-chloro-2-fluorophenyl)-2-isobutyl-6-(2-methylpyridin-4-yl)pyrimidin-4(3H)-one], the IC50 is 50 to 100 nM in assay [1] and < 400 nM in assay [2].
